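Compound exposure: 48 hours, 5 concentrations, 96-well plates. TGI marks complete inhibition of growth.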
Key:
Test in all cases: inhibition of tumour cell growth, NCI panel, 48 h
EKVX NSCLC = system: EKVX NSCLC
HCT-15 colon = system: HCT-15 colon
HT29 colon = system: HT29 colon
KM12 colon = system: KM12 colon
MCF7 breast = system: MCF7 breast
MDA-MB-435 = system: MDA-MB-435
MDA-N = system: MDA-N
NCI-H226 lung = system: NCI-H226 lung
NCI-H23 lung = system: NCI-H23 lung
NCI/ADR-RES ovarian = system: NCI/ADR-RES ovarian
OVCAR-3 ovarian = system: OVCAR-3 ovarian
OVCAR-4 ovarian = system: OVCAR-4 ovarian
OVCAR-8 ovarian = system: OVCAR-8 ovarian
TK-10 renal = system: TK-10 renal
HL-60(TB) leukemia = system: HL-60(TB) leukemia
RXF 393 renal = system: RXF 393 renal

SMILES	TGI (EKVX NSCLC) [µM]	TGI (HCT-15 colon) [µM]	TGI (HT29 colon) [µM]	TGI (KM12 colon) [µM]	TGI (MCF7 breast) [µM]	TGI (MDA-MB-435) [µM]	TGI (MDA-N) [µM]	TGI (NCI-H226 lung) [µM]	TGI (NCI-H23 lung) [µM]	TGI (NCI/ADR-RES ovarian) [µM]	TGI (OVCAR-3 ovarian) [µM]	TGI (OVCAR-4 ovarian) [µM]	TGI (OVCAR-8 ovarian) [µM]	TGI (TK-10 renal) [µM]	TGI (HL-60(TB) leukemia) [µM]	TGI (RXF 393 renal) [µM]
COC(=O)C(COC(C)=O)NC(=O)/C=C/c1ccc(O)c(OC(C)=O)c1 (stereo not drawn)	> 100	> 100	> 100	> 100	> 100	> 100	> 100	> 100	> 100	> 100	> 100	> 100	> 100	> 100		
O=C(O)Cc1cccc2c1OC(c1ccccc1)C(Cl)(C(=O)c1ccccc1)C2=O (stereo not drawn)	50	28.8	30	50.6	24.5	30.6	29	80.9	33.1	> 100	31.9		65.2	37.2	28	
c1ccc(CSP234N5CCN2CCN3CCN4CC5)c(CSP234N5CCN2CCN3CCN4CC5)c1	> 100	> 100	> 100	> 100	> 100	> 100	82.8		> 100	> 100	> 100	> 100	> 100	> 100	77	
COc1ccc(-c2cc(=O)c3ccccc3[nH]2)c(OC)c1	> 100	> 100	> 100	> 100					> 100		> 100		> 100	> 100	> 100	> 100
CC(=O)OCCOCn1cnc2c(Cl)nc(Cl)nc21	7.83	14.5	32.9	44.1		33.5	32.9	50.6	36.1	57.5	27.2	37.5	44.2	> 100	6.21	
O=c1c2cc(S(=O)(=O)O)ccc2nc(COc2ccc(Oc3ccc(Cl)cc3Cl)cc2)n1-c1ccc(Cl)cc1Oc1c(Cl)cccc1Cl	40.4	56.6	39.9	> 100	45.6	66.5	99.4	49.6	57.1	77.4	61.1	> 100	75.1	> 100	> 100	
CCOP(=O)(O)C1C(CO)OC(n2ccc(=O)[nH]c2=O)C1O (stereo not drawn)	> 100	> 100	> 100	> 100			> 100	> 100			> 100	> 100	> 100	> 100	> 100	> 100
NC(CCC(=O)O)C(=O)N1CCN(c2nc(N3CCCC3)c3nc(Cl)c(NCc4ccccc4)nc3n2)CC1 (stereo not drawn)	27.7	31	25.5	40.3	25.6	26.2	23.1	32.9	32.3	46.2	22.9	29.1	38.6	31	24.4	
C=C1CCC23CC(CC[C@@H]2[C@@]12C[C@@H](c1ccoc1)OC2=O)OC3=O (stereo partly drawn)	> 100	> 100	> 100	> 100				> 100	> 100		> 100	> 100	> 100	> 100	> 100	
CSC1=N/C(=C\c2ccccc2)C(=O)N1CN1CCCCC1	> 100		90.7	> 100	> 100	> 100	> 100	> 100	> 100	> 100	> 100	56.4	> 100	> 100		
CCn1c2ccccc2n2c(=O)c3c(c(C#N)c12)CCCC3	> 100	> 100	> 100	> 100	> 100	> 100	> 100	> 100	> 100	> 100	> 100	> 100	> 100	> 100	> 100	
N#Cc1c(-c2ccccc2)cc(Nc2cccc(C(F)(F)F)c2)n2c1nc1ccccc12	10	10.2	4.6	30.5		17.1	10.3	4.74	3.63	7.15	5.58	22.2	10.3	17.8		11.9
Cc1ccc(S(=O)(=O)OC(c2ccc(Cl)cc2Cl)C2OC(=O)c3ccccc32)cc1 (stereo not drawn)	> 100	> 100	> 100	> 100				> 100	> 100		> 100	> 100	> 100	> 100	86.1	> 100
C=CCc1cc(-c2cc(CC=C)c(O)c(CNCCCl)c2)cc(CNCCCl)c1O		31.1	36.5	31.4				35.4	31.3		43.9	56.7	49.4	57.5	44.8	
CCOP(=O)(CN1CCNCCNCC1)OCC	> 100	> 100	> 100	> 100	> 100	> 100	> 100	> 100		> 100	> 100	> 100	> 100	> 100	> 100	
CC(C)Oc1ccc2c(c1)OCC1Cc3ccccc3OC21 (stereo not drawn)	> 100	46.2	> 100	> 100	> 100	> 100	> 100	> 100	> 100	> 100	> 100		> 100	> 100	> 100	
Cn1c(=O)c2[nH]c(CCCCC(=O)O)nc2n(C)c1=O	> 100	> 100	> 100	> 100		> 100	> 100	> 100	> 100	> 100	> 100	> 100	> 100	> 100		> 100

SMILES	TGI (EKVX NSCLC) [µM]	TGI (HCT-15 colon) [µM]	TGI (HT29 colon) [µM]	TGI (KM12 colon) [µM]	TGI (MCF7 breast) [µM]	TGI (MDA-MB-435) [µM]	TGI (MDA-N) [µM]	TGI (NCI-H226 lung) [µM]	TGI (NCI-H23 lung) [µM]	TGI (NCI/ADR-RES ovarian) [µM]	TGI (OVCAR-3 ovarian) [µM]	TGI (OVCAR-4 ovarian) [µM]	TGI (OVCAR-8 ovarian) [µM]	TGI (TK-10 renal) [µM]	TGI (HL-60(TB) leukemia) [µM]	TGI (RXF 393 renal) [µM]
c1csc(-c2cc(-c3cccs3)c(-c3ccsc3)s2)c1	> 100	> 100	> 100	> 100	> 100	> 100	> 100	> 100	> 100	> 100		> 100	> 100	> 100	> 100	
N#Cc1nc(C2=C(Cl)c3ccccc3OC2)[nH]c1C#N	> 100	> 100	41.5	71.9	70				69.1	> 100	70.9	> 100	> 100	> 100	70.7	38.8
COc1ccc(N2C(=O)c3cc(C)cnc3S2(=O)=O)cc1	> 100	> 100	> 100	> 100		> 100	> 100	> 100	> 100	> 100	> 100	> 100	> 100	> 100	> 100	> 100
CN1C2CCC1CC(CCNC(c1ccccc1)c1ccccc1)C2 (stereo not drawn)	> 100	> 100	> 100	> 100		21.4	30.6	> 100	> 100	> 100	> 100	> 100	> 100	55	> 100	39.1
NC(N)=N/N=C/c1c(-c2cccc([N+](=O)[O-])c2)nc2n1CCS2	54.5	> 100	32.7	68.5	36.1	55.3		39	58.9	> 100	63	29.8	39.3	47.4	45.6	36
CCN(CC)CC(=O)O[C@]1(CC)C(=O)OCc2c1cc1n(c2=O)Cc2cc3ccccc3nc2-1	> 100	3.93		0.862		0.862	1.58	0.23	0.13	0.165	0.947	0.62	3.65	24.9	0.401	0.564
COc1cccc(/C=C2\C(=O)N(C(=O)c3ccc(NC(C)=O)cc3)N=C2C)c1	> 100	> 100	> 100					> 100	> 100		> 100	> 100	> 100	> 100		
O=C(O)Cc1cc(O)c(CC(=O)O)cc1O	> 100	> 100	> 100	> 100		> 100	> 100	> 100	> 100	> 100	> 100	> 100	> 100	> 100	> 100	> 100
CC(C)=CC(=O)C[C@H]1C(=O)O[C@@H]2C[C@H]3C(C)=CC(=O)[C@@H](O)[C@]3(C)[C@H]3[C@@]4(O)OC[C@]32[C@@H]1[C@@H](C)[C@H]4O	4.25	0.907		12.8		0.305	0.329	< 0.0156	0.042	11	0.166	1.05	0.283	0.512	> 100	
O=C1NCCCNCCCNCCCNC(=O)c2cccc1n2	> 100	> 100	> 100	> 100		> 100	> 100	> 100	> 100	> 100	> 100	> 100	> 100	> 100		> 100
CCOC(=O)C(Cc1cn(S(=O)(=O)c2ccccc2)c2ccccc12)(NC(C)=O)C(=O)OCC		> 100	> 100	> 100				93.6	> 100		> 100	> 100	> 100	> 100	41.5	
O=C1NC2OCC(O)C(O)C2O1 (stereo not drawn)	> 100	> 100	> 100	> 100					> 100		> 100	> 100	> 100	> 100	> 100	
Cc1ccc(-c2c3nc(c(-c4ccc(C)cc4)c4ccc([nH]4)c(-c4ccc(OCC5COC(C)(C)O5)cc4)c4nc(c(-c5ccc(C)cc5)c5ccc2[nH]5)C=C4)C=C3)cc1 (stereo not drawn)	> 31.6	> 31.6	> 31.6	> 31.6	> 31.6	> 31.6	> 31.6	> 31.6	> 31.6	> 31.6	> 31.6	> 31.6	> 31.6	> 31.6		
O=C1O/C(=C(/Cl)c2cccc3ccccc23)c2ccccc21	> 100	> 100	> 100	> 100	> 100	> 100	> 100		> 100		> 100	> 100	> 100	> 100	> 100	> 100
N#C/C(N)=C(\C#N)N=CN	> 100	> 100	> 100	> 100	> 100	> 100	> 100		> 100	> 100	> 100	> 100	> 100	> 100	> 100	
CN(C)/C=N/S(=O)(=O)c1nn2c(C=O)c(-c3ccc(Cl)cc3)nc2s1	12.7	5.63	0.552	17.6	2.68	7.92		9.86	9.81	10.6	2.87	3.58	3.2	2.88		3.37
